Laboratory results from US12617831B2 (UNIVERSITE D'ANGERS, priority 2019, dated 2026).

Columns and labels:
[1] = molecular target: T1, human GLP-2r (Homo sapiens, UniProt O95838); test: Cyclic AMP assay (FRET, H74 probe), HEK-293 transfected with human GLP-2r; assay type: cell-based; details: HEK 293 transfected only with human GLP-2r, 10^-9 M, 30 min (FIG. 17)
T1 construct: host or cells: HEK-293
T1 sequence (O95838 1-553): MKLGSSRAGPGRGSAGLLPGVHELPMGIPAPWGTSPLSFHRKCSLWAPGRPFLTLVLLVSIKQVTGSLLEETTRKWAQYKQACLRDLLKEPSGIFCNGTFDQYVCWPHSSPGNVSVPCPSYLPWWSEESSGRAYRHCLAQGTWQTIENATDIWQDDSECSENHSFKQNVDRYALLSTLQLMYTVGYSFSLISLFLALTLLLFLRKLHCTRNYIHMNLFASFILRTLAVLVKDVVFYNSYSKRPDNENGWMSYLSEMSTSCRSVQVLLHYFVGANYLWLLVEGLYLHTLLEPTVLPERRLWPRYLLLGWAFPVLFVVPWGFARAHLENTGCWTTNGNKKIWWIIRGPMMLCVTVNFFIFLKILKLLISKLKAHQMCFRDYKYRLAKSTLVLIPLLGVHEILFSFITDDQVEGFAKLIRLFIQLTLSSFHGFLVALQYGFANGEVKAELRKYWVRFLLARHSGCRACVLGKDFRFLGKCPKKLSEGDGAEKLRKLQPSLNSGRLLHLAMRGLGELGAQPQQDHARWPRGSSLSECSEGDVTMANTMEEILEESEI
Experimental: (§1) Human HEK-293 cells were plated at a density of 2×10^5 cells/cm^2 in 4 well microslides (ibidi GmbH, Martinsried, Germany). […] Jalink (Netherland Cancer Institute, Amsterdam, Netherland). […] The image acquisition was performed with a 63 X, 1.4 N.A. oil immersion objective and a Hybrid® detector (Leica) and images were collected after 30 minutes. Donor excitation was made with a 458 nm Ar laser, donor emission was collected between 460-505 nm and acceptor emission between 520-600 nm by setting the SP8 spectrometer accordingly. FRET was expressed as the ratio between donor and acceptor signals.

[2] = system: ovariectomy-induced bone loss in mice; test: Cortical bone strength, 3-point bending at the midshaft femur, ovariectomized mice; assay type: in vivo
Experimental: At 16 weeks of age, ALZET osmotic pumps (model number 2006, Durect Corp., Cupertino, CA) filled with the below saline or peptide were implanted subcutaneously between the two scapula under general anesthesia in 32 mice. Successful filling of pumps was verified by weighting the pump before and after filling. At 20 weeks of age, ALZET osmotic pumps were replaced by similar pumps to ensure delivery for four new weeks. […] This dose and regimen of zoledronic acid was equivalent to the 5 mg infusion approved for the treatment of post-menopausal osteoporosis in humans. At necropsy, femurs and second lumbar vertebras (L2) were cleaned of soft tissue and immediately frozen in a saline-soaked gauze at −20° C. Three-point-bending experiments were performed on femurs after thawing bones at 4° C. overnight. Femurs were loaded to failure in 3-point bending at 2 mm/min using a servohydraulic materials testing system (Instron 5942, Instron, Elancourt, France). The lower span length was of 10 mm. Femurs were oriented so the anterior quadrant was facing down and subjected to tensile loads. Load and displacement of the upper crosshead, which were digitally recorded at a sampling rate of 100 Hz, were measured using a 500 N load cell (Instron). Stiffness, ultimate load, yield load, post-yield displacement (PYD), and work-to-fracture were calculated from the load-displacement curves. PYD was defined as the displacement at failure minus the displacement at yield.

[3] = system: human GIPr and the human GLP-2r; test: Cyclic AMP assay (FRET, H74 probe), HEK-293 co-transfected with human GIPr and human GLP-2r; assay type: cell-based; details: 10^-9 M
Experimental: as §1

[4] = system: MC3T3-E1 cells; assay type: cell-based, murine
Experimental: Increased plasma membrane permeability that occurs during cell death can be visualised using trypan blue, a dye that is excluded from living cells and is incorporated into the cells when they are undergoing death (Bellido and Plotkin (2008) Methods Mol. Biol. 455:51-75).
After 24 h, the cell culture supernatant containing the floating cells was collected and put in previously labelled eppendorf tubes. Each well was washed in PBS before trypsin was added to detach adherent cells. The mixture containing detached adherent cells was collected and pooled in the eppendorf containing the cell culture supernatant. Cells were spun at 1,500 rotation per minute (rpm) for 10 minutes, the supernatant was removed carefully and cells were incubated with trypan blue 0.04% and transferred into a haemocytometer. Living (clear) and dead (blue) cells were counted under light microscope examination and the percentage of dead cells was determined for each condition as follow: % of dead cells=100×(Number of dead cells)/(Number of dead cells+Number of living cells)

[5] = system: Murine MC3T3-E1 cells; test: Collagen maturity assay in MC3T3-E1 cultures (Example 2); assay type: cell-based; details: compared with [D-Ala^2]GIP1-30NH2 and [Gly^2]GLP-2
Experimental: At confluence, the propagation medium was replaced by the differentiation medium containing αMEM supplemented with 5% FBS, 5% bovine calf serum, 100 U/mL penicillin, 100 μg/mL streptomycin, 50 μg/ml ascorbic acid and various concentrations of analogues. This day was considered as day 1. The differentiation medium was replenished every two days. […] Cultures were rinsed at least six times with milliQ water, fixed in absolute ethanol, scrapped off the culture dish and transferred onto BaF2 windows where they were air-dried. Integrity of the collagen extracellular matrix was verified by comparing the obtained Fourier transform infrared spectrum with those of commercial collagen. Spectral analysis was performed using a Bruker Vertex 70 spectrometer (Bruker optics, Ettlingen, Germany) interfaced with a Bruker Hyperion 3000 infrared microscope equipped with a standard single element Mercury Cadmium Telluride (MCT) detector. Infrared spectra were recorded at a resolution of 4 cm^−1, with an average of 32 scans in transmission mode. Background spectral images were collected under identical conditions from the same BaF2 windows at the beginning and end of each experiment to ensure instrument stability. At least 20 spectra were acquired for each condition and analyzed with a lab-made routine script in Matlab R2016b (The Mathworks, Natick, MA).

[6] = system: Murine Raw 264.7 cells; test: Raw264.7 cell-mediated osteoclast formation in vitro (Example 2); assay type: cell-based; details: 10 ng/ml soluble murine RANKL, 110 h, TRAcP staining
From the text: TRAcP positive cells, with more than three nuclei, were identified as osteoclasts.

[7] = OVX mice, 100 nmoles/kg/day, 8 weeks, vs vehicle

| SMILES | intracellular levels of cAMP [1] | increase in work-to-fracture ([2]; OVX mice, 25 nmoles/kg/day, 8 weeks, vs vehicle) | increase in post-yield displacement ([2]; mouse, in vivo) | increase in ultimate displacement ([2]; mouse, in vivo) | intracellular levels of cAMP ([3]; HEK 293 co-transfected with human GIPr and human GLP-2r, 30 min (FIG. 18)) | magnitude of cAMP rise versus native peptides ([3]; co-transfected HEK 293 cells) | osteoblast cell death [4] | potency versus native peptides, based on osteoclast formation in vitro and collagen maturity in vitro [5] | IC50 [6] | augmentation in work-to-fracture [2, 7] | increase in post-yield displacement [2, 7] | increase in ultimate displacement [2, 7] |
| --- | --- | --- | --- | --- | --- | --- | --- | --- | --- | --- | --- | --- |
| CC[C@H](C)[C@H](NC(=O)[C@H](CO)NC(=O)[C@H](CCSC)NC(=O)[C@H](CC(=O)O)NC(=O)[C@H](CO)NC(=O)CNC(=O)[C@H](Cc1ccccc1)NC(=O)[C@H](CO)NC(=O)CNC(=O)[C@H](CCC(=O)O)NC(=O)CNC(=O)[C@@H](N)Cc1c[nH]cn1)C(=O)N[C@@H](C)C(=O)N[C@@H](CC(C)C)C(=O)N[C@@H](CC(=O)O)C(=O)N[C@@H](CCCCN)C(=O)N[C@@H](CC(C)C)C(=O)N[C@@H](C)C(=O)N[C@@H](C)C(=O)N[C@@H](CCCNC(=N)N)C(=O)N[C@@H](CC(=O)O)C(=O)N[C@@H](Cc1ccccc1)C(=O)N[C@H](C(=O)N[C@@H](CC(N)=O)C(=O)N[C@@H](Cc1c[nH]c2ccccc12)C(=O)N[C@@H](CC(C)C)C(=O)N[C@@H](CC(C)C)C(=O)N[C@@H](CCC(N)=O)C(=O)N[C@H](C(=O)N[C@@H](CCCCN)C(=O)N[C@H](C(=O)N[C@H](C(=O)N[C@@H](CC(=O)O)C(=O)O)[C@@H](C)O)[C@@H](C)CC)[C@@H](C)O)C(C)C [GL-0001] | increased intracellular levels of cAMP | 37% | 70% | 34% | increased intracellular levels of cAMP | greater with GL-0001 than with each native peptide | does not induce cell death | better potency than each native peptide | 0.0182 ± 0.0056 nM |  |  |  |
| CC[C@H](C)[C@H](NC(=O)[C@H](CO)NC(=O)[C@H](Cc1ccccc1)NC(=O)[C@H](CC(=O)O)NC(=O)[C@H](CO)NC(=O)CNC(=O)[C@H](Cc1ccccc1)NC(=O)[C@H](CO)NC(=O)CNC(=O)[C@H](CCC(=O)O)NC(=O)CNC(=O)[C@@H](N)Cc1c[nH]cn1)C(=O)N[C@@H](C)C(=O)N[C@@H](CC(C)C)C(=O)N[C@@H](CC(=O)O)C(=O)N[C@@H](CCCCN)C(=O)N[C@@H](CC(C)C)C(=O)N[C@@H](C)C(=O)N[C@@H](C)C(=O)N[C@@H](CCCNC(=N)N)C(=O)N[C@@H](CC(=O)O)C(=O)N[C@@H](Cc1ccccc1)C(=O)N[C@H](C(=O)N[C@@H](CC(N)=O)C(=O)N[C@@H](Cc1c[nH]c2ccccc12)C(=O)N[C@@H](CC(C)C)C(=O)N[C@@H](CC(C)C)C(=O)N[C@@H](CCC(N)=O)C(=O)N[C@H](C(=O)N[C@@H](CCCCN)C(N)=O)[C@@H](C)O)C(C)C [GL-0007] |  |  |  |  |  |  |  | better potency than each native peptide |  | 33% | 62% | 33% |
